Data reported in US11596692B1 (Incyte Corporation, priority 2018, dated 2023).

Test system: IRF3
Test: IRF3 activation assay in THP-1 Dual cells
Type: cell-based
Conditions: Homo sapiens, THP-1, Table 4C; read-out: THP1 IRF3 EC50
Procedure, shortened: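 THP-1 Dual cells (100,000/well) were treated with serially diluted compound for 24 h at 37° C, 5% CO2. IRF3 reporter activity in supernatant was read with QUANTI-Blue as absorbance at 620-655 nm after 2 h, with untreated cells as negative control. EC50 came from fitting percent control activity against log concentration.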

SMILES | EC50
CCn1nc(C)cc1C(=O)Nc1nc2cc(C(N)=O)cc(OC(C)C)c2n1C/C=C/Cn1c2nc(-c3cc(C)nn3CC)ncc2c2cc(C(N)=O)cc(OCCCOC)c21 [Example S35, (E)-9-(4-(5-carbamoyl-2-(1-ethyl-3-methyl-1H-pyrazole-5-carboxamido)-7-isopropoxy-1H-benzo[d]imidazol-1-yl)but-2-en-1-yl)-2-(1-ethyl-3-methyl-1H-pyrazol-5-yl)-8-(3-methoxypropoxy)-9H-pyrimido[4,5-b]indole-6-carboxamide] | 50 to 200 nM
CCn1nc(C)cc1C(=O)Nc1nc2cc(C(N)=O)cc(OCCCN3CCN(C)CC3)c2n1C/C=C/Cn1c2nc(-c3cc(C)nn3CC)ncc2c2cc(C(N)=O)cc(OCCCOC)c21 [Example S36, (E)-9-(4-(5-carbamoyl-2-(1-ethyl-3-methyl-1H-pyrazole-5-carboxamido)-7-(3-(4-methylpiperazin-1-yl)propoxy)-1H-benzo[d]imidazol-1-yl)but-2-en-1-yl)-2-(1-ethyl-3-methyl-1H-pyrazol-5-yl)-8-(3-methoxypropoxy)-9H-pyrimido[4,5-b]indole-6-carboxamide] | 50 to 200 nM
CCn1nc(C)cc1C(=O)Nc1nc2cc(C(N)=O)cc(OCCCO)c2n1C/C=C/Cn1c2ccc(C(N)=O)cc2c2cc(F)c(-c3cc(C)nn3CC)nc21 [Example S37, (E)-9-(4-(5-carbamoyl-2-(1-ethyl-3-methyl-1H-pyrazole-5-carboxamido)-7-(3-hydroxypropoxy)-1H-benzo[d]imidazol-1-yl)but-2-en-1-yl)-2-(1-ethyl-3-methyl-1H-pyrazol-5-yl)-3-fluoro-9H-pyrido[2,3-b]indole-6-carboxamide] | ≤ 50 nM
CCn1nc(C)cc1C(=O)Nc1nc2cc(C(N)=O)cc(OCCCN)c2n1C/C=C/Cn1c2nc(-c3cc(C)nn3CC)ncc2c2cc(C(N)=O)cc(OCCCOC)c21 [Example S38, (E)-9-(4-(7-(3-aminopropoxy)-5-carbamoyl-2-(1-ethyl-3-methyl-1H-pyrazole-5-carboxamido)-1H-benzo[d]imidazol-1-yl)but-2-en-1-yl)-2-(1-ethyl-3-methyl-1H-pyrazol-5-yl)-8-(3-methoxypropoxy)-9H-pyrimido[4,5-b]indole-6-carboxamide] | 500 to 1000 nM
CCn1nc(C)cc1C(=O)Nc1nc2cc(C(N)=O)cc(OCCCNC(=O)CCCC(=O)O)c2n1C/C=C/Cn1c2nc(-c3cc(C)nn3CC)ncc2c2cc(C(N)=O)cc(OCCCOC)c21 [Example S39, (E)-5-((3-((5-carbamoyl-1-(4-(6-carbamoyl-2-(1-ethyl-3-methyl-1H-pyrazol-5-yl)-8-(3-methoxypropoxy)-9H-pyrimido[4,5-b]indol-9-yl)but-2-en-1-yl)-2-(1-ethyl-3-methyl-1H-pyrazole-5-carboxamido)-1H-benzo[d]imidazol-7-yl)oxy)propyl)amino)-5-oxopentanoic acid] | ≤ 50 nM
CCn1nc(C)cc1C(=O)Nc1nc2cc(C(N)=O)cc(OCCOC(=O)c3cc(C)nn3CC)c2n1C/C=C/Cn1c2nc(-c3cc(C)nn3CC)ncc2c2cc(C(N)=O)cc(OCCCOC)c21 [Example S40, (E)-2-((5-carbamoyl-1-(4-(6-carbamoyl-2-(1-ethyl-3-methyl-1H-pyrazol-5-yl)-8-(3-methoxypropoxy)-9H-pyrimido[4,5-b]indol-9-yl)but-2-en-1-yl)-2-(1-ethyl-3-methyl-1H-pyrazole-5-carboxamido)-1H-benzo[d]imidazol-7-yl)oxy)ethyl 1-ethyl-3-methyl-1H-pyrazole-5-carboxylate] | ≤ 50 nM
CCn1nc(C)cc1C(=O)Nc1nc2cc(C(N)=O)cc(OCCO)c2n1C/C=C/Cn1c2nc(-c3cc(C)nn3CC)ncc2c2cc(C(N)=O)cc(OCCCOC)c21 [Example S41, (E)-9-(4-(5-carbamoyl-2-(1-ethyl-3-methyl-1H-pyrazole-5-carboxamido)-7-(2-hydroxyethoxy)-1H-benzo[d]imidazol-1-yl)but-2-en-1-yl)-2-(1-ethyl-3-methyl-1H-pyrazol-5-yl)-8-(3-methoxypropoxy)-9H-pyrimido[4,5-b]indole-6-carboxamide] | ≤ 50 nM
CCn1nc(C)cc1C(=O)Nc1nc2cc(C(N)=O)cc(OCCCNC(=O)[C@H](CC(=O)O)NC(=O)[C@H](CC(=O)O)NC(=O)[C@H](CCCNC(=N)N)NC(=O)[C@@H](N)CC(=O)O)c2n1C/C=C/Cn1c2nc(-c3cc(C)nn3CC)ncc2c2cc(C(N)=O)cc(OCCCOC)c21 [Example S42] | 200 to 500 nM
CCn1nc(C)cc1C(=O)Nc1nc2cc(C(N)=O)cc(OCCN3CCOCC3)c2n1C/C=C/Cn1c2nc(-c3cc(C)nn3CC)ncc2c2cc(C(N)=O)cc(OCCCOC)c21 [Example S43, (E)-9-(4-(5-carbamoyl-2-(1-ethyl-3-methyl-1H-pyrazole-5-carboxamido)-7-(2-morpholinoethoxy)-1H-benzo[d]imidazol-1-yl)but-2-en-1-yl)-2-(1-ethyl-3-methyl-1H-pyrazol-5-yl)-8-(3-methoxypropoxy)-9H-pyrimido[4,5-b]indole-6-carboxamide] | 50 to 200 nM
CCn1nc(C)cc1C(=O)Nc1nc2cc(C(N)=O)cc(OCCCNC(=O)OCCC(=O)O)c2n1C/C=C/Cn1c2nc(-c3cc(C)nn3CC)ncc2c2cc(C(N)=O)cc(OCCCOC)c21 [Example S44, (E)-3-(((3-((5-carbamoyl-1-(4-(6-carbamoyl-2-(1-ethyl-3-methyl-1H-pyrazol-5-yl)-8-(3-methoxypropoxy)-9H-pyrimido[4,5-b]indol-9-yl)but-2-en-1-yl)-2-(1-ethyl-3-methyl-1H-pyrazole-5-carboxamido)-1H-benzo[d]imidazol-7-yl)oxy)propyl)carbamoyl)oxy)propanoic acid] | ≤ 50 nM
CCn1nc(C)cc1C(=O)Nc1nc2cc(C(N)=O)cc(OCCCNC(=O)NCC(=O)O)c2n1C/C=C/Cn1c2nc(-c3cc(C)nn3CC)ncc2c2cc(C(N)=O)cc(OCCCOC)c21 [Example S46, (E)-((3-((5-carbamoyl-1-(4-(6-carbamoyl-2-(1-ethyl-3-methyl-1H-pyrazol-5-yl)-8-(3-methoxypropoxy)-9H-pyrimido[4,5-b]indol-9-yl)but-2-en-1-yl)-2-(1-ethyl-3-methyl-1H-pyrazole-5-carboxamido)-1H-benzo[d]imidazol-7-yl)oxy)propyl)carbamoyl)glycine] | ≤ 50 nM
CCn1nc(C)cc1C(=O)Nc1nc2cc(C(N)=O)cc(OCCCNC(=O)[C@@H](N)CC(=O)O)c2n1C/C=C/Cn1c2nc(-c3cc(C)nn3CC)ncc2c2cc(C(N)=O)cc(OCCCOC)c21 [Example S47, (S,E)-3-amino-4-((3-((5-carbamoyl-1-(4-(6-carbamoyl-2-(1-ethyl-3-methyl-1H-pyrazol-5-yl)-8-(3-methoxypropoxy)-9H-pyrimido[4,5-b]indol-9-yl)but-2-en-1-yl)-2-(1-ethyl-3-methyl-1H-pyrazole-5-carboxamido)-1H-benzo[d]imidazol-7-yl)oxy)propyl)amino)-4-oxobutanoic acid] | 50 to 200 nM
CCn1nc(C)cc1C(=O)Nc1nc2cc(C(N)=O)cc(OCCOCCOCCC(=O)O)c2n1C/C=C/Cn1c2nc(-c3cc(C)nn3CC)ncc2c2cc(C(N)=O)cc(OCCCOC)c21 [Example S49, (E)-3-(2-(2-((5-carbamoyl-1-(4-(6-carbamoyl-2-(1-ethyl-3-methyl-1H-pyrazol-5-yl)-8-(3-methoxypropoxy)-9H-pyrimido[4,5-b]indol-9-yl)but-2-en-1-yl)-2-(1-ethyl-3-methyl-1H-pyrazole-5-carboxamido)-1H-benzo[d]imidazol-7-yl)oxy)ethoxy)ethoxy)propanoic acid] | ≤ 50 nM
CCn1nc(C)cc1C(=O)Nc1nc2cc(C(N)=O)cc(OCCCNS(=O)(=O)CCCC(=O)O)c2n1C/C=C/Cn1c2nc(-c3cc(C)nn3CC)ncc2c2cc(C(N)=O)cc(OCCCOC)c21 [Example S50, (E)-4-(N-(3-((5-carbamoyl-1-(4-(6-carbamoyl-2-(1-ethyl-3-methyl-1H-pyrazol-5-yl)-8-(3-methoxypropoxy)-9H-pyrimido[4,5-b]indol-9-yl)but-2-en-1-yl)-2-(1-ethyl-3-methyl-1H-pyrazole-5-carboxamido)-1H-benzo[d]imidazol-7-yl)oxy)propyl)sulfamoyl)butanoic acid] | ≤ 50 nM
CCn1nc(C)cc1C(=O)Nc1nc2cc(C(N)=O)cc(OC)c2n1C/C=C/Cn1c2nc(-c3cc(C)nn3CC)ncc2c2cc(C(N)=O)cc(OCCCNC(=O)CCCC(=O)O)c21 [Example S51, (E)-5-(3-(6-carbamoyl-9-(4-(5-carbamoyl-2-(1-ethyl-3-methyl-1H-pyrazole-5-carboxamido)-7-methoxy-1H-benzo[d]imidazol-1-yl)but-2-enyl)-2-(1-ethyl-3-methyl-1H-pyrazol-5-yl)-9H-pyrimido[4,5-b]indol-8-yloxy)propylamino)-5-oxopentanoic acid] | ≤ 50 nM
CCn1nc(C)cc1C(=O)Nc1nc2cc(C(N)=O)cc(OC)c2n1C/C=C/Cn1c2nc(-c3cc(C)nn3CC)ncc2c2cc(C(N)=O)cc(OCCCNC(=O)OCCC(=O)O)c21 [Example S52, (E)-3-(3-(6-carbamoyl-9-(4-(5-carbamoyl-2-(1-ethyl-3-methyl-1H-pyrazole-5-carboxamido)-7-methoxy-1H-benzo[d]imidazol-1-yl)but-2-enyl)-2-(1-ethyl-3-methyl-1H-pyrazol-5-yl)-9H-pyrimido[4,5-b]indol-8-yloxy)propylcarbamoyloxy)propanoic acid] | ≤ 50 nM
CCn1nc(C)cc1C(=O)Nc1nc2cc(C(N)=O)cc(OCCCO)c2n1C/C=C/Cn1c2nc(-c3cc(C)nn3CC)ncc2c2cc(C(N)=O)cc(OCCCNC(=O)CCCC(=O)O)c21 [Example S53, (E)-5-(3-(6-carbamoyl-9-(4-(5-carbamoyl-2-(1-ethyl-3-methyl-1H-pyrazole-5-carboxamido)-7-(3-hydroxypropoxy)-1H-benzo[d]imidazol-1-yl)but-2-enyl)-2-(1-ethyl-3-methyl-1H-pyrazol-5-yl)-9H-pyrimido[4,5-b]indol-8-yloxy)propylamino)-5-oxopentanoic acid] | ≤ 50 nM
